Measured values from patent US20260034075A1, “CHOLINE CARBOXYLIC ACID BASED IONIC LIQUIDS AS ANTIMICROBIAL AGENTS” (University of Mississippi, priority 2022, published 2026).
Where two headings read alike, the source gives them in different places.

How the values were obtained:
Assay type in all cases: cell-based
[1] = tested on: Human embryonic kidney (HEK-293) cells
Method: Cytotoxicity Studies. Human embryonic kidney (HEK-293) cells were treated in vitro with four of the top candidates (CADA 1:1, CADA 1:2, CA2DE 1:2, and CA3DE 1:2) to determine the concentration at which the IL dosage is toxic to human cells. 1% (w/v) solutions of each IL in sterile water were prepared similarly to the MBC experiments before addition at five different concentrations. The HEK cells were incubated with the IL treatments for 24 hours and then prepared with CellTiter-Glo(R) Luminescent Cell Viability reagent (100 μL per well). Brightfield microscopy images were used to qualitatively depict the concentration at which the cells were no longer viable, while a 96-well plate reader was used to quantitatively determine the percent viability of the cells at each concentration of the ILs. Quantitative measurements were performed in triplicate.
Human Biocompatibility Studies. […]
The viability of the cells was then quantified by preparing the IL-treated cells with 100 μL of CellTiter-Glo(R) Luminescent Cell Viability reagent in each well and measuring the luminescence on the plate reader. […] The results are expressed as percent viability and present as mean±standard deviation of three independent experiments (FIGS. 8A-8D). […]

[2] = tested on: E. coli; test: E. coli kinetic study (OD600 over 16 hours, first-order kinetics fit)
Method: E. coli Kinetic Study. A 96-well plate was filled with 180 μL of E. coli cells that were cultured as mentioned above and treated with 20 μL CADA 1:1 of concentrations ranging from the lethal concentration to one-sixteenth of that concentration to determine how the growth inhibition is affected with changing concentration of the IL. 20 μL of growth media was added to the “untreated” cells such that all wells contained a total volume of 200 μL. The plate was heated to 37° C. with triplicate OD600 measurements taken every 20 minutes over the course of 16 hours with a Biotek Synergy H1 microplate reader.
Bactericidal and Bacteriostatic Activity Kinetics. […] CADA 1:1 was employed instead of CADA 1:2 in this study because of its lowered turbidity in comparison. 180 μL of liquid E. coli culture was added to each well of a 96-well plate and brought up to 200 μL with either IL treatment or growth media alone if untreated. […] However, the cells treated with sublethal concentrations of IL still show what seem to be minor inhibitory interactions with the IL before exiting the lag phase and starting to grow. […] The turbidity of longer chain choline carboxylic acid-based ILs is quite high in aqueous solution and can falsely be determined as growth in OD measurements. Previous studies have shown that the critical micellar concentration (CMC) tends to […] with alkyl chain length and ionic strength, which could potentially affect antimicrobial efficacy. Therefore, IL solutions in sterile water at the same concentrations used to treat the bacteria were utilized as a control and subtracted from the wells with E. coli cells receiving IL treatment.
Integration of Growth Inhibition Following First-Order Kinetics. […] This was achieved by plotting In([A]T/[A]0) vs. time during the growth period to produce a linear representation of the logarithmic growth. Once the integrations were performed and plotted, rate constants were extracted with uncertainty from the slope of the trendlines. For the untreated cells and cells treated with sublethal concentrations, the logarithmic growth was positive, therefore, the rate constant should be positive. […] The rate of inhibition (k=0.0055±0.0002) was almost one-third of the growth rate of the cells that received no treatment, meaning that the inhibition is occurring immediately and for the duration of the study, suppressing the natural growth of the cells by 70%.

[3] = tested on: E. coli [BL21(DE3)]; test: Minimal Bactericidal Concentration (MBC) measurements, E. coli
Method: (§1) Bacterial Cell Culturing. Expression cells from frozen stock were streaked onto a kanamycin-selected lysogeny broth (LBKan) agar plate using a sterile loop and incubated overnight at 37° C. One colony was then taken from the plate the next day to inoculate 50 mL of sterile LBKan broth and shaken at 37° C. until reaching a growth concentration of 4×10^8 CFU/mL. This protocol was used for bacterial cell culture preparation in all of the experiments described below.
Minimal Bactericidal Concentration (MBC) Measurements. E. coli cells were cultured as described above and aliquoted into sterile tubes. 1%, 10%, and 100% (w/v) solutions of IL in sterile water (correcting for water percentage of the IL) were prepared and sonicated for 15 minutes at 40° C. before addition to the liquid culture. IL solutions were then added to E. coli at varying percentages (v/v), allowing calculation of the actual concentration of IL that was added to the culture. 100 μL of each solution was then spread onto an LBKan agar plate and incubated overnight at 37° C. […] Each IL solution was tested in triplicate.

[4] = tested on: MRSA [BAA-1708]; test: Growth inhibition / MBC of Methicillin Resistant Staphylococcus aureus (MRSA)
Method: as §1
Growth Inhibition of Methicillin Resistant Staphylococcus Aureus (MRSA). 10% (w/v) solutions of IL in sterile water were prepared similarly to the E. coli MBC experiments. ILs with anion chain lengths of 8-12 carbons at 1:2 mole ratio of choline to anion were added to MRSA at varying concentrations to determine the lowest concentration in which growth was inhibited. Concentrations were then compared to values obtained for E. coli for each solution.

[5] = Table 1, lowest IL concentration with no growth on LBKan agar plate, triplicate

Compound	E. coli MBC [3, 5] [mM]	further results
CCCCCCCCCC(=O)[O-].C[N+](C)(C)CCO [CADA 1:1, Choline Decanoate 1:1]	3.48	percent viability [1]: over 97%; suppression of the natural growth of the cells ([2]; lethal concentration): 70%; rate of inhibition k ([2]; lethal concentration, first-order fit of OD600): 0.0055±0.0002; OD600 course at lethal concentration ([2]; lethal concentrations, 16 hours): inhibited immediately with a steady decrease in OD600; delay of normal growth after the untreated cells entered the log phase ([2]; sublethal doses, extended lag phase): about two; growth rate relative to the rate of the untreated cells ([2]; sublethal treatment): 20-25%; growth rate constant k ([2]; sublethal treatment, first-order fit of OD600): 0.0039±0.0002
CCCCC(=O)[O-].C[N+](C)(C)CCO [CAPA 1:1, Choline Pentanoate 1:1]	792.10	
CCCCCCCCCCC(=O)[O-].C[N+](C)(C)CCO [CAUA 1:1, Choline Undecanoate 1:1]	15.50	
Choline 2-Butenoate 1:2 [CA2BE 1:2]	158.97	
Choline 2-Decenoate 1:2 [CA2DE 1:2]	0.77	
Choline 2-Heptenoate 1:2 [CA2HPE 1:2]	21.33	
Choline 2-Hexenoate 1:2 [CA2HE 1:2]	54.37	
Choline 2-Octenoate 1:2 [CA2OE 1:2]	5.18	
Choline 2-Pentenoate 1:2 [CA2PE 1:2]	120.10	
Choline 2-Undecenoate 1:2 [CA2UE 1:2]	1.78	MRSA MBC ([4]; Table 2, 1:2 mole ratio ILs): 1.06 mM; E. coli MBC ([3]; Table 2, comparison with MRSA): 1.78 mM
Choline 3-Butenoate 1:2 [CA3BE 1:2]	153.33	
Choline 3-Decenoate 1:2 [CA3DE 1:2]	0.57	MRSA MBC ([4]; Table 2, 1:2 mole ratio ILs): 1.13 mM; E. coli MBC ([3]; Table 2, comparison with MRSA): 0.57 mM
Choline 3-Heptenoate 1:2 [CA3HPE 1:2]	18.93	
Choline 3-Hexenoate 1:2 [CA3HE 1:2]	52.00	
Choline 3-Mercaptopropionate 1:2 [CA3MP 1:2]	101.07	
Choline 3-Octenoate 1:2 [CA3OE 1:2]	2.16	

Compound	E. coli MBC [3, 5] [mM]	further results
Choline 3-Pentenoate 1:2 [CA3PE 1:2]	134.83	
Choline Acetoxyacetate 1:2 [CAAA 1:2]	12.41	
Choline Butanoate 1:2 [CABA 1:2]	152.70	
Choline Decanoate 1:2 [CADA 1:2]	0.56	percent viability [1]: > 60%; MRSA MBC ([4]; Table 2, 1:2 mole ratio ILs): 2.23 mM; E. coli MBC / killing efficacy concentration [3]: 0.56 mM; E. coli MBC ([3]; Table 2, comparison with MRSA): 0.56 mM
Choline Dodecanoate 1:2 [CADDA 1:2]	8.34	MRSA MBC [4]: 0.99 mM; MRSA MBC ([4]; Table 2, 1:2 mole ratio ILs): 0.99 mM; E. coli MBC ([3]; Table 2, comparison with MRSA): 8.34 mM
Choline Ethoxyacetate 1:2 [CAEA 1:2]	89.20	
Choline Fumarate 1:2 [CAFU 1:2]	10.05	
Choline Heptanoate 1:2 [CAHPA 1:2]	16.33	
Choline Hexanoate 1:2 [CAHA 1:2]	28.23	
Choline Malate 1:2 [CAMI 1:2]	91.80	
Choline Maleate 1:2 [CAME 1:2]	20.00	
Choline Malonate 1:2 [CAMA 1:2]	21.60	
Choline Nonanoate 1:2 [CANA 1:2]	1.01	
Choline Octanoate 1:2 [CAOA 1:2]	4.91	
Choline Pentanoate 1:2 [CAPA 1:2]	110.37	
Choline Undecanoate 1:2 [CAUA 1:2]	1.98	MRSA MBC ([4]; Table 2, 1:2 mole ratio ILs): 2.10 mM; E. coli MBC ([3]; Table 2, comparison with MRSA): 1.98 mM
